The conditions of series [1]: cited from earlier work.
The test system of series [2] is γ-secretase. The series can be described thus: Aβ peptide content in conditioned media by ELISA (γ-secretase readout) in pinitol-treated H4 cells. It counts as cell-based, human. The method, then: For quantitative assessment of A∃ peptides (Xiang et al. Gene Expr. 2002, 10:271-278), frozen pulverized brain tissues were homogenized in 5.0 M guanidine buffer, diluted (1:10) in phosphate-buffered saline containing 0.05% (v/v) Tween-20 and 1 mM Pefabloc protease inhibitors (Roche Biochemicals, Indianapolis, Ind.) and centrifuged for 20 min at 4° C. Total Aβ1-40 or Aβ1-42 was measured by sandwich ELISA (BioSource, Camarillo, Calif.) according to the manufacturer's instructions. Serum specimens were assessed directly using the same ELISA according to the manufacturer's instructions.
(§1) In this study, cultured human glioma H4-cells with constitutive APP751 expression were treated with increasing concentrations of pinitol, and then cellular ∀- and ∃-secretase activity as well as A∃ peptide contents in the conditioned media were assessed in response to pinitol treatment over time. Growth and maintenance of H4-APP751 cells were as described in Qin et al. (J. Biol. Chem. 2002; 278:50970-50977). Confluent cell cultures were treated with increasing concentration of pinitol. At 24 and 48 hours after pinitol treatment, cells were harvested for secretase activity assays and conditioned media were collected for measurement of A∃ peptide contents. The ∀-secretase (FIG. 7A) and ∃-secretase (FIG. 7B) activities in pinitol-treated cells were measured using commercially available kits (R&D Systems). Harvested cells were homogenized in supplied buffers and homogenate was added to a secretase-specific APP peptide conjugated to the reporter molecules EDANS and DABCYL. […] Cleavage of the peptide by the secretase physically separates the EDANS and DABCYL, allowing the release of a fluorescent signal. The level of ∀-secretase (FIG. 7A) or ∃-secretase (FIG. 7B) enzymatic activity is proportional to the fluorometric reaction in the homogenate. […] A∃ peptides were measured by ELISA as described above. In FIG. 7, each value represents Mean±SEM; n=4 cultures per assay; * P<0.05 vs. control (no pinitol treatment) group (2-tailed Student's t test).

The next series has as its system α-secretase. The series can be described thus: Cell-based α-secretase activity assay (fluorometric kit) in pinitol-treated H4 cells. On the set-up: species or system human. To be noted: cultured H4 cells, increasing concentrations of pinitol, 24 and 48 hours. As for the experimental part:
as §1, with “In FIG. 7, each value represents Mean±SEM; n=4 cultures per assay; * P<0.05 vs. control (no pinitol treatment) group (2-tailed Student's t test).” left out

The subject of series [3] is NOTCH. The series can be described thus: Cleavage of NOTCH in the neocortex of Tg2576 transgenic mice. It counts as in vivo, mouse. Particulars: compared to insulin-resistant and control Tg2576 mice, data not shown.
The conditions of series [4]: insulin-resistant and hyperinsulinemic monkeys; cited from earlier work.
Series [5] concerns γ-secretase. The series can be described thus: In vitro γ-secretase assay in extracts obtained from CHO-APPswe cells. The format is biochemical. To be noted: data not shown. As for the experimental part:
(§2) For assessment of γ-secretase activity, cell monolayers were rinsed twice with ice-cold PBS on ice, scraped from tissue culture dishes and centrifuged (1,500 rpm, 10 min, 4° C.). Cell pellets were then resuspended (0.5 ml/10 cm dish) in homogenization buffer (10 mM MOPS pH 7.0, 10 mM potassium chloride, 1× complete protease inhibitor (PI) (Roche Molecular Biochemicals, Germany) and homogenized by passing cell suspensions through a 23-gauge needle 10 times. Homogenates were then centrifuged (2,500 rpm, 15 min at 4° C.) to remove unbroken cells and nuclei. The supernatant (membrane and post-nuclear supernatant) was then centrifuged (14,000 rpm, 20 min, 4° C.) and rinsed in homogenization buffer. Membranes were then resuspended (0.5 ml/10 cm dish) in assay buffer (150 mM sodium citrate pH 6.4; 1×PI) and incubated at (2 hr) at 37° C. in 25 μl of incubation buffer per assay sample to allow for generation of the CTF-γ cleavage product; negative control samples were maintained on ice. CTF-γ cleavage products (as well as CTF-α and CTF-β) were resolved electrophoretically in 10-20% Tris-Tricine gels (Bio Rad Laboratories, CA), and identified using an anti APP polyclonal C8 antibody. Immunoreactivities were visualized autoradiographically using a chemiluminescence detection kit (SuperSignal; Pierce Biotechnology, Rockford, Ill.). […]

For series [6] the following is noted: history of use, animal and human clinical scientific studies; cited from earlier work.
Series [7] is described as follows: LDH assay of cell toxicity. It counts as cell-based. Particulars: all concentrations tested, 50-250 μM, not shown.
Series [8] relates to Tg2576 mice. The series can be described thus: Aβ peptide content (ELISA) in the brain of Tg2576 mice on high-fat diet plus pinitol. It counts as in vivo, mouse. To be noted: 12-month old female Tg2576 mice, high-fat diet plus pinitol in drinking water (600 mg/liter), from 4 months of age. From the text: This study assessed A∃ peptide contents in the brain and in the periphery (serum) of 12-month old female Tg2576 mice in response to chronic treatment, initiating at 4 month of age, with a high-fat (HF) diet or HF diet plus pinitol (N=3-4 per group). Gender-age-matched Tg2576 mice maintained on standard rodent laboratory diet (LF diet) served as controls. High-fat diet and standard laboratory diet containing equal % of cholesterol per g/diet were purchased from Research Diet, Inc. (New Brunswick, N.J.) (Ho et al, FASEB J 2004; 18:902-204). Pinitol (Humanetics Corp.) was provided by incorporation into drinking water (600 mg pinitol/liter water), which is available ad libitum. […] For quantitative assessment of A∃ peptides (Xiang et al. Gene Expr. 2002, 10:271-278), frozen pulverized brain tissues were homogenized in 5.0 M guanidine buffer, diluted (1:10) in phosphate-buffered saline containing 0.05% (v/v) Tween-20 and 1 mM Pefabloc protease inhibitors (Roche Biochemicals, Indianapolis, Ind.) and centrifuged for 20 min at 4° C. Total Aβ1-40 or Aβ1-42 was measured by sandwich ELISA (BioSource, Camarillo, Calif.) according to the manufacturer's instructions. Serum specimens were assessed directly using the same ELISA according to the manufacturer's instructions.

Series [9] relates to NOTCH. The series can be described thus: γ-secretase-mediated cleavage of NOTCH in H4-APPswe cells. It counts as cell-based, human. To be noted: FIG. 8B. From the text:
The selectivity of D-pinitol action was further addressed by examining its effect on cleavage of the signaling molecule NOTCH. The “gamma-secretase” complex, consisting of presenilins (PS), nicastrin (NCT), APH-1 and PEN-2, catalyzes the intramembranous proteolysis of truncated Notch derivatives to generate NICD, respectively.

The next series addresses T1, β-secretase (Homo sapiens, UniProt P56817).
T1 construct: endogenous in cells; host or cells: H4-APP751 human glioma cells (homogenate)
The series can be described thus: Cell-based β-secretase activity assay (fluorometric kit) in pinitol-treated H4 cells. To be noted: cultured H4 cells, increasing concentrations of pinitol, 24 and 48 hours. As for the experimental part: as §1, with “In FIG. 7, each value represents Mean±SEM; n=4 cultures per assay; * P<0.05 vs. control (no pinitol treatment) group (2-tailed Student's t test).” left out

Series [10] deals with γ-secretase. The series can be described thus: In vitro γ-secretase assay (in vitro model of amyloidosis): CTF-γ from membrane-bound APP, H4-APPswe cells. It counts as biochemical, human. As for the experimental part:
as §2

The subject of series [11] is Tg2576 mice. The series can be described thus: Cognitive function in Tg2576 mice. It counts as in vivo, mouse.
Another series deals with GSK-3. The series can be described thus: GSK-3 activity in the brain of Tg2576 mice. The format is in vivo, mouse. Particulars: Tg2576 mice treated with D-pinitol.
Series [12] concerns insulin receptor signal transduction. The series can be described thus: Insulin receptor signal transduction in the brain of Tg2576 mice. The format is in vivo, mouse.
Where [13] appears, read: conditioned culture media, ELISA, increasing concentrations of pinitol.
Setting [14] is: 80 mg/kg/day in drinking water from six months of age, 12-month old Tg2576 mice.

The structures appear in SMILES notation. Entries after “also recorded” stand apart in the source; their conditions may differ. Where two headings read alike, the source gives them in different places.

Data on two compounds can be found in patent US9254273B2, “Compositions and methods for treating Alzheimer's disease and related disorders and promoting a healthy nervous system” (Icahn School of Medicine at Mount Sinai, priority 2004, dated 2016).

T1 sequence (P56817 46-501): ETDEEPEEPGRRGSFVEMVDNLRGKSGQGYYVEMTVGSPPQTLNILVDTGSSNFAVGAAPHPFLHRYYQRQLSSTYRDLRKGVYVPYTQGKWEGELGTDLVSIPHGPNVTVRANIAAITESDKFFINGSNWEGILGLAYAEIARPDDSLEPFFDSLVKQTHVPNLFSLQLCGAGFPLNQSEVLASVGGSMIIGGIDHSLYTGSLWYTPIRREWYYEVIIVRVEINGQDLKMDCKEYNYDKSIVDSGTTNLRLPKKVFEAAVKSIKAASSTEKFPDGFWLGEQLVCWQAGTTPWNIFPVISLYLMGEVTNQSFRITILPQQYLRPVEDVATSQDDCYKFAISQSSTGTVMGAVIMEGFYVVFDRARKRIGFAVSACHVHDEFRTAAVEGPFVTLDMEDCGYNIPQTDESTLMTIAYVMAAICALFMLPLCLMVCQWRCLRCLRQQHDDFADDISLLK

Regarding `CO[C@H]1[C@H](O)[C@@H](O)[C@@H](O)[C@H](O)[C@@H]1O` [D-pinitol], in series [1] (normal rats given glucose), the blood glucose concentration entry is listed as “lower”. Further, the blood glucose concentration entry in series [1] (streptozotocin-induced diabetic rats) is on record as “lower”. For the same compound, in the series on γ-secretase [2] (setting [13]), the Aβ1-40 production entry is “dose-dependent inhibition” and the Aβ1-42 production entry is “dose-dependent inhibition”. Also, in the series with γ-secretase [2] (cultured H4 cells, read out as Aβ1-40 and Aβ1-42 in conditioned media), the γ-secretase activity entry is on record as “robust inhibitory effect”. Besides, the α-secretase activity result in the series with α-secretase is reported as “no effect; also recorded: does not influence”. The “cleavage of NOTCH in the neocortex” value in the series on NOTCH [3] is “no inhibitory effect”. In addition, in [4], the “rate of glucose disappearance” value is “increased”. Besides, the “Aβ1-40 peptide in the same tissue culture” value in the series with γ-secretase [5] (CHO-APPswe cells) is on record as “corresponding reduction”. Besides, the “formation of the ~7 kDa CTF-γ APP” value in the series with γ-secretase [5] (extracts from CHO-APPswe cells) is listed as “blocked in a dose dependent fashion”. The “toxicity and safety in man” value in series [6] was “non-toxic and safe”. For the same compound, in series [7], the “cell toxicity (LDH assay)” value was “no detectable cell toxicity”. The “β-amyloidogenesis in the brain” value with Tg2576 mice [8] was “amelioration”. Besides, the “β-amyloidogenesis in the brain” value in the series with Tg2576 mice [8] (listed as pinitol) is listed as “reduced”. Moreover, in the series on NOTCH [9], the “cleavage of NOTCH” value was “no inhibitory effect”. The β-secretase activity result on β-secretase is reported as “no effect; also recorded: does not influence”. For the same compound, the “formation of the ~7 kDa CTF-γ APP fragment” value with γ-secretase [10] (H4-APPswe cells, membrane-bound APP) is on record as “blocked; also recorded: selective reduction”. The cognitive impairment entry in the series with Tg2576 mice [11] (NIDDM-like insulin resistant Tg2576 mice) is recorded as “beneficially influences”. Besides, the cognitive functions result with Tg2576 mice [11] (Tg2576 mice, 80 mg/kg body weight per day in drinking water, preliminary studies) was “promotes”. Besides, in the series on GSK-3, the “GSK-3 activity in the brain” value is recorded as “restoration”. Moreover, in [12] (setting [14]), the PI3K-p85α result is “increased”, the S473-AKT result is “increased” and the “total IRβ” value is “not”. The “Y1162/1163-phosphorylated IRβ” value in series [12] (80 mg/kg/day in drinking water from six months of age, 12-month old Tg2576 mice, vs insulin resistant and control mice) is “increased”. For the same compound, the “insulin receptor signal transduction in the brain” value in series [12] (Tg2576 mice treated with D-pinitol) is “restoration”.
Turning to `OC1C(O)C(O)C(O)C(O)C1O` (stereo not drawn) [d-chiro-inositol, reference compound], the “β-amyloid formation in the in vitro system” value in the series on γ-secretase [10] (in vitro amyloidosis system) was “no inhibitory effect”.
